Experimental data from the NIST ThermoML archive (doi:10.1021/acs.jced.7b00372).
Several values for one entry are separate records, joined by “and”; a condition that tells them apart may be missing. Identical values can stand only once. Numbers after ± are expanded uncertainties. Each block holds one molecule with its values, some of them ahead of it.

What was measured:
[1] = Liquid, Ebulliometric method (Recirculating still)
[2] = refractive index (Na D-line) (dimensionless); settings: 93 kPa, Liquid, Standard Abbe refractometry
[3] = refractive index (Na D-line) (dimensionless); xn = mol fraction of the nth substance listed; settings: 293.15 K, 93 kPa, Liquid, Standard Abbe refractometry

Compound: Cc1ccccc1C [1,2-dimethylbenzene]
vapor or sublimation pressure ([1]; 414.41 K): 93.13 ± 0.96 kPa
refractive index ([2]; 293.15 K): 1.5048 ± 0.0004
refractive index ([2]; 298.15 K): 1.5022 ± 0.0004

Compound: Cc1ccccc1C [1,2-dimethylbenzene] + COC(=O)OC
refractive index ([3]; x1 = 0.045): 1.377 ± 0.0005
refractive index ([3]; x1 = 0.1564): 1.3961 ± 0.0005
refractive index ([3]; x1 = 0.1622): 1.3969 ± 0.0005
refractive index ([3]; x1 = 0.2752): 1.4149 ± 0.0005
refractive index ([3]; x1 = 0.36): 1.4272 ± 0.0005
refractive index ([3]; x1 = 0.4516): 1.4397 ± 0.0005
refractive index ([3]; x1 = 0.5655): 1.4556 ± 0.0005
refractive index ([3]; x1 = 0.603): 1.4601 ± 0.0005
refractive index ([3]; x1 = 0.7134): 1.4734 ± 0.0005
refractive index ([3]; x1 = 0.7602): 1.4795 ± 0.0005
refractive index ([3]; x1 = 0.8813): 1.493 ± 0.0005
refractive index ([3]; x1 = 0.9276): 1.4973 ± 0.0005
refractive index ([3]; x1 = 1): 1.5048 ± 0.0004

Compound: Cc1cccc(C)c1 [1,3-dimethylbenzene]
vapor or sublimation pressure ([1]; 409.13 K): 93.13 ± 0.96 kPa
refractive index ([2]; 293.15 K): 1.497 ± 0.0004
refractive index ([2]; 298.15 K): 1.4943 ± 0.0004

Compound: Cc1cccc(C)c1 [1,3-dimethylbenzene] + COC(=O)OC
refractive index ([3]; x1 = 0.0467): 1.3769 ± 0.0005
refractive index ([3]; x1 = 0.0871): 1.3836 ± 0.0005
refractive index ([3]; x1 = 0.1737): 1.3973 ± 0.0005
refractive index ([3]; x1 = 0.2042): 1.4021 ± 0.0005
refractive index ([3]; x1 = 0.2593): 1.4101 ± 0.0005
refractive index ([3]; x1 = 0.3033): 1.4167 ± 0.0005
refractive index ([3]; x1 = 0.3719): 1.4262 ± 0.0005
refractive index ([3]; x1 = 0.4455): 1.4359 ± 0.0005
refractive index ([3]; x1 = 0.4709): 1.439 ± 0.0005
refractive index ([3]; x1 = 0.5421): 1.4481 ± 0.0005
refractive index ([3]; x1 = 0.6549): 1.4612 ± 0.0005
refractive index ([3]; x1 = 0.7672): 1.4738 ± 0.0005
refractive index ([3]; x1 = 0.8662): 1.4839 ± 0.0005
refractive index ([3]; x1 = 0.94): 1.4913 ± 0.0005
refractive index ([3]; x1 = 1): 1.497 ± 0.0004

Compound: Cc1ccc(C)cc1 [1,4-dimethylbenzene]
vapor or sublimation pressure ([1]; 408.37 K): 93.13 ± 0.96 kPa
refractive index ([2]; 293.15 K): 1.4956 ± 0.0004
refractive index ([2]; 298.15 K): 1.4929 ± 0.0004

Compound: Cc1ccc(C)cc1 [1,4-dimethylbenzene] + COC(=O)OC
refractive index ([3]; x1 = 0.0368): 1.3752 ± 0.0005
refractive index ([3]; x1 = 0.0866): 1.3835 ± 0.0005
refractive index ([3]; x1 = 0.157): 1.3946 ± 0.0005
refractive index ([3]; x1 = 0.2639): 1.4106 ± 0.0005
refractive index ([3]; x1 = 0.3598): 1.4241 ± 0.0005
refractive index ([3]; x1 = 0.4244): 1.4326 ± 0.0005
refractive index ([3]; x1 = 0.5293): 1.4457 ± 0.0005
refractive index ([3]; x1 = 0.6397): 1.4586 ± 0.0005
refractive index ([3]; x1 = 0.7655): 1.4724 ± 0.0005
refractive index ([3]; x1 = 0.8832): 1.4848 ± 0.0005
refractive index ([3]; x1 = 0.938): 1.4898 ± 0.0005
refractive index ([3]; x1 = 1): 1.4956 ± 0.0004

Compound: COC(=O)OC [dimethyl carbonate]
vapor or sublimation pressure ([1]; 360.73 K): 93.13 ± 0.96 kPa
refractive index ([2]; 293.15 K): 1.3687 ± 0.0004 and 1.3688 ± 0.0004
refractive index ([2]; 298.15 K): 1.3664 ± 0.0004

Compound: COC(=O)OC [dimethyl carbonate] + CCc1ccccc1
refractive index ([3]; x2 = 0): 1.3688 ± 0.0004

Compound: COC(=O)OC [dimethyl carbonate] + Cc1ccc(C)cc1
refractive index ([3]; x2 = 0): 1.3687 ± 0.0004

Compound: COC(=O)OC [dimethyl carbonate] + Cc1cccc(C)c1
refractive index ([3]; x2 = 0): 1.3688 ± 0.0004

Compound: COC(=O)OC [dimethyl carbonate] + Cc1ccccc1C
refractive index ([3]; x2 = 0): 1.3688 ± 0.0004

vapor or sublimation pressure ([1]; 406.23 K): 93.13 ± 0.96 kPa
refractive index ([2]; 293.15 K): 1.4956 ± 0.0004
refractive index ([2]; 298.15 K): 1.493 ± 0.0004
Compound: CCc1ccccc1 [ethylbenzene]

refractive index ([3]; x1 = 0.0462): 1.3767 ± 0.0005
refractive index ([3]; x1 = 0.089): 1.3836 ± 0.0005
refractive index ([3]; x1 = 0.1753): 1.397 ± 0.0005
refractive index ([3]; x1 = 0.2701): 1.4109 ± 0.0005
refractive index ([3]; x1 = 0.3564): 1.4232 ± 0.0005
refractive index ([3]; x1 = 0.4359): 1.4335 ± 0.0006
refractive index ([3]; x1 = 0.4448): 1.4352 ± 0.0005
refractive index ([3]; x1 = 0.468): 1.4382 ± 0.0005
refractive index ([3]; x1 = 0.5157): 1.4441 ± 0.0005
refractive index ([3]; x1 = 0.5825): 1.4527 ± 0.0005
refractive index ([3]; x1 = 0.6639): 1.4617 ± 0.0005
refractive index ([3]; x1 = 0.7377): 1.4702 ± 0.0005
refractive index ([3]; x1 = 0.852): 1.4815 ± 0.0005
refractive index ([3]; x1 = 0.8827): 1.4847 ± 0.0005
refractive index ([3]; x1 = 0.9124): 1.4873 ± 0.0005
refractive index ([3]; x1 = 0.9395): 1.49 ± 0.0005
refractive index ([3]; x1 = 1): 1.4956 ± 0.0004
Compound: CCc1ccccc1 [ethylbenzene] + COC(=O)OC
